Tests used:
[1] = target: T1, HSPB1 (Homo sapiens, UniProt P04792); assay: DARTS with Western blot (protection from protease); type: biochemical; set-up: endogenous protein in lysate, detected by Western blot after protease digestion (DARTS); details: cell lysate, room temperature, 20 min with luteolin, protease digestion 15 min
[2] = target: T1, HSPB1; assay: SPR (Reichert 4SPR, immobilised HSPB1); type: binding; set-up: protein immobilised by EDC/NHS on dextran SPR chip; details: read-out: affinity

T1 sequence (P04792 whole entry): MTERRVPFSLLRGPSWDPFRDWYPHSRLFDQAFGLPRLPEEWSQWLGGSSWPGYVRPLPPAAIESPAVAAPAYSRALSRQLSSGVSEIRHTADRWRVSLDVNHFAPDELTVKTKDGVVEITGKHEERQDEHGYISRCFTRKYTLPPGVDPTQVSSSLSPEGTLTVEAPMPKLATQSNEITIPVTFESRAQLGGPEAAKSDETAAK

Kd [2]: 23.7 µM
SMILES: O=c1cc(-c2ccc(O)c(O)c2)oc2cc(O)cc(O)c12 [luteolin]
DARTS with Western blot (protection from protease) [1]: addition of luteolin under the same protease concentration conditions reduced the hydrolysis of HSPB1

From PMC11469493, “Luteolin target HSPB1 regulates endothelial cell ferroptosis to protect against radiation vascular injury” (PLOS ONE, 2024)
